Target: T1, hAHR (Homo sapiens, UniProt P35869)
T1 construct: expressed in transfected cells
T1 sequence (P35869 11-848): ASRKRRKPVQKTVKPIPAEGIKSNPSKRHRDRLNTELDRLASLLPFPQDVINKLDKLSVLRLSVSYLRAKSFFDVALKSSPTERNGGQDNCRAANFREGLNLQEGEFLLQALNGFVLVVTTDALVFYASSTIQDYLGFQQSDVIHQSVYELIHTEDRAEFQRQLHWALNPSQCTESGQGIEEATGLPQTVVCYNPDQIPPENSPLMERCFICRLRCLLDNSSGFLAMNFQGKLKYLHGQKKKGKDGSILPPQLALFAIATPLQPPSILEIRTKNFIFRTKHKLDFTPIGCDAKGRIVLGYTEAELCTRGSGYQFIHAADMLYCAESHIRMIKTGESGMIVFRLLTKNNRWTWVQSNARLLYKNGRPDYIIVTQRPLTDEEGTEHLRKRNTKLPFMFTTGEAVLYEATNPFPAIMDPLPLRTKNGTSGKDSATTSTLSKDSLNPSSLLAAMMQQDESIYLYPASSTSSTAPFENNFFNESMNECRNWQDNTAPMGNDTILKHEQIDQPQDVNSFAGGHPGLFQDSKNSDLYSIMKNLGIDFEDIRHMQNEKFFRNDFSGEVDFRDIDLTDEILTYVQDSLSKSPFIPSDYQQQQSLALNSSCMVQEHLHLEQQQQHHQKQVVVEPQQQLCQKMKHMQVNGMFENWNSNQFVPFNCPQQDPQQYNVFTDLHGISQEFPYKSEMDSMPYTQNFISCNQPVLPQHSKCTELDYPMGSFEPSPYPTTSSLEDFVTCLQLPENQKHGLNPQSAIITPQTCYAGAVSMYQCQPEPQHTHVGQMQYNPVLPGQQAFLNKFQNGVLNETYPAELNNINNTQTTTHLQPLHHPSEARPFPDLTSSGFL
Assay: hAHR nuclear translocation assay
Type: cell-based
Conditions: Jump-In T-REx HEK293 cells expressing AhR-EGFP; 45 min incubation; ratio of EGFP intensity in nuclear over cytosol; 20-point curve
Outline: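 HEK293 cells with doxycycline-induced AhR-EGFP fusion treated 45 min at 37° C with compound (20-point 1:2 series, 0.2% DMSO) in DMEM/0.1% BSA, then methanol-fixed. Nuclear-to-cytosolic EGFP ratio imaged by high-content microscopy and fitted to a 4-parameter logistic for agonist potency.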

Structure (SMILES)	EC50 [nM]
Cn1c2c(cc(C(=O)Nc3ccccc3)c1=O)CCC2 [Example 108, 1-Methyl-2-oxo-N-phenyl-6,7-dihydro-5H-cyclopenta[b]pyridine-3-carboxamide]	2.5
Cn1c2c(cc(C(=O)Nc3ccccc3)c1=O)CCCCC2 [Example 109, 1-Methyl-2-oxo-N-phenyl-6,7,8,9-tetrahydro-5H-cyclohepta[b]pyridine-3-carboxamide]	1.04
Cn1c2c(c(O)c(C(=O)Nc3ccccc3)c1=O)CC(C)(C)CC2 [Example 110, 4-Hydroxy-1,6,6-trimethyl-2-oxo-N-phenyl-7,8-dihydro-5H-quinoline-3-carboxamide]	2.27
CC(C)CCNC(=O)c1c(O)c2c(n(C)c1=O)CCCC2 [Example 111, 4-Hydroxy-N-isopentyl-1-methyl-2-oxo-5,6,7,8-tetrahydroquinoline-3-carboxamide]	10.3
